Here are results for seven compounds from PMC12339378 (Molecular Psychiatry, 2025).

Data set [1] concerns HCN channel Ih currents in VTA DA neurons. Format: cell-based, mice.
For the next data set, the system named is VTA DA neurons. Format: cell-based, mice. Particulars: 750 µM local application for 3 min; cell-attached; average.
For data set [2] the following is noted: cited from earlier work.

`COc1ccc(CCN2CCO[C@H](CN3CCc4cc(OC)c(OC)cc4CC3=O)C2)cc1OC` [compound 6]: the “percent inhibition of Ih currents in VTA DA neurons” value (from here on “percent inhibition of Ih currents”) in data set [1] is listed as “less efficacious than Cilobradine”.
For `COc1cc2c(cc1OC)CC(=O)N(C[C@H]1CCCN(C(=O)OC(C)(C)C)C1)CC2` [compound 11], the “percent inhibition of Ih currents” value in data set [1] is “less than half the efficacy of Cilobradine”.
On to `COc1cc2c(cc1OC)CC(=O)N(CCCN(C)C[C@H]1Cc3cc(OC)c(OC)cc31)CC2` [Ivabradine], for which the “percent inhibition of firing rate in VTA DA neurons” value in the data set with VTA DA neurons is recorded as 61.1%. Moreover, the “percent inhibition of Ih currents” value in data set [1] is recorded as “significant inhibition of the Ih current”. In data set [2], the “ability to cross the blood-brain barrier (BBB)” value is “limited abilities to cross the blood-brain barrier”.
`COc1ccc(CCN(C)CCCN2CCc3cc(OC)c(OC)cc3CC2=O)cc1OC` [Zatebradine]: the “percent inhibition of firing rate in VTA DA neurons” value with VTA DA neurons is on record as 59.7%. Besides, the “percent inhibition of Ih currents” value in data set [1] is “significant inhibition of the Ih current”.
Take `COc1cc2c(cc1OC)CC(=O)N(C[C@H]1CCCN(CCOc3ccccc3F)C1)CC2` [compound 4]: the “percent inhibition of Ih currents” value in data set [1] is “less efficacious than Cilobradine”.
On to `COc1ccc(C(F)(F)CN(C)CCCN2CCc3cc(OC)c(OC)cc3CC2=O)cc1OC` [compound 8], for which the “percent inhibition of Ih currents” value in data set [1] is “no efficacy”.
On the same count and under the same terms, the value for `COc1cc2c(cc1OC)CC(=O)N(C[C@H]1CCCN(CCOc3ccccc3)C1)CC2` [compound 3] was “less efficacious than Cilobradine”.
